Activity calls are given as the source filed them. The calls are words filed in the database; no cut-off is given here.
Key:
Mus musculus [1] = assay: In vivo inhibition of IDO2 in BALB/c mouse xenografted with human HCT-116 cells assessed as suppression of IDO2 mRNA expression in tumor by quantitative RT-PCR analysis; format: functional, organism-based
Mus musculus [2] = assay: In vivo inhibition of IDO1/IDO2 in BALB/c mouse xenografted with human HCT-116 cells assessed as downregulation of Foxp3 mRNA expression in tumor by quantitative RT-PCR analysis; format: functional, organism-based
HCT-116 [3] = assay: Antitumor activity against human HCT-116 cells xenografted in BALB/c nude mouse assessed as tumor growth inhibition at 300 mg/kg, ig bid for 21 days by vernier caliper method; format: functional, organism-based; details: time 21.0 day
Mus musculus [4] = assay: In vivo inhibition of IDO1/IDO2 in BALB/c mouse xenografted with human HCT-116 cells assessed as downregulation of Foxp3 expression in tumor by immunohistochemical assay; format: functional, organism-based
HCT-116 [5] = assay: Cytotoxicity against human HCT-116 cells assessed as reduction in cell viability by CCK8 assay; format: functional, cell-based
HT-29 = assay: Cytotoxicity against human HT-29 cells assessed as reduction in cell viability by CCK8 assay; format: functional, cell-based
Mus musculus [6] = assay: In vivo inhibition of TDO in BALB/c mouse xenografted with human HCT-116 cells assessed as suppression of TDO expression in tumor by immunohistochemical assay; format: functional, organism-based
Mus musculus [7] = assay: In vivo inhibition of TDO in BALB/c mouse xenografted with human HCT-116 cells assessed as suppression of TDO mRNA expression in tumor by quantitative RT-PCR analysis; format: functional, organism-based
CT26 [8] = assay: Cytotoxicity against mouse CT26 cells assessed as reduction in cell viability by CCK8 assay; format: functional, cell-based
CT26 [9] = assay: Antitumor activity against mouse CT26 cells implanted in BALB/c mouse assessed as tumor growth inhibition at 50 mg/kg, ip bid for 28 days by vernier caliper method relative to control; format: functional; details: CT26, 672 h, time 28 day, read-out: TGI
Mus musculus [10] = assay: In vivo inhibition of IDO2 in BALB/c mouse xenografted with human HCT-116 cells assessed as suppression of IDO2 expression in tumor by immunohistochemical assay; format: functional, organism-based
[11] = biological target: T1, Indoleamine 2,3-dioxygenase 2 (Homo sapiens, UniProt Q6ZQW0); assay: Inhibition of IDO2 (unknown origin) assessed as reduction in kynurenine formation using L-tryptophan as substrate by methylene blue reagent based assay
T1 sequence (Q6ZQW0 whole entry): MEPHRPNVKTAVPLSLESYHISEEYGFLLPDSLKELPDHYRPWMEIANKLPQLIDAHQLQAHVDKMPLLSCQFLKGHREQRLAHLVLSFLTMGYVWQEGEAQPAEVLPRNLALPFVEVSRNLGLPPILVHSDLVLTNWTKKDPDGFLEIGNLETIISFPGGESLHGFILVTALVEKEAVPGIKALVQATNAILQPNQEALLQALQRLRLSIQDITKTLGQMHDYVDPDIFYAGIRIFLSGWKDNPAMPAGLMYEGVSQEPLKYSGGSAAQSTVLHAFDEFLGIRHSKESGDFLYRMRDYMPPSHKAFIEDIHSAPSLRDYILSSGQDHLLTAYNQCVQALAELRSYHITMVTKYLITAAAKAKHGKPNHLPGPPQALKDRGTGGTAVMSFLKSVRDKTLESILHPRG

[12] = biological target: T2, Indoleamine 2,3-dioxygenase 1 (Homo sapiens, UniProt P14902); assay: Inhibition of IDO1 (unknown origin) assessed as reduction in kynurenine formation using L-tryptophan as substrate by methylene blue reagent based assay
Target sequence in this assay (P14902 whole entry): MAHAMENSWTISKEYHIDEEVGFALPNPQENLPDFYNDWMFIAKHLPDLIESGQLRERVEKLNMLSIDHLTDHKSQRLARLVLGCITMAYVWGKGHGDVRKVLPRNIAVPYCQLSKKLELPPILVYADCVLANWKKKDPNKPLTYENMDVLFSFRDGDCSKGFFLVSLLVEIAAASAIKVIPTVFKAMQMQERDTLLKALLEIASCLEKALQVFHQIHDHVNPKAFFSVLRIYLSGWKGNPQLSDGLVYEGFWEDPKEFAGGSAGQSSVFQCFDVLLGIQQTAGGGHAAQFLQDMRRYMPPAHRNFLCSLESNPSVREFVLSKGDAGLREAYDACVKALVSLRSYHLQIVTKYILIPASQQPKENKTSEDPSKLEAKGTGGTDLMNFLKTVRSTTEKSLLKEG

[13] = biological target: T2, Indoleamine 2,3-dioxygenase 1; assay: Inhibition of IDO1 (unknown origin) assessed as reduction in kynurenine formation using L-tryptophan as substrate by methylene blue reagent based assay relative to control; set-up: concentration or dose not given beside the values; details: concentration not given here
Target sequence in this assay (P14902 whole entry, looked up): as the sequence (P14902 whole entry) above

[14] = biological target: T3, Indoleamine 2,3-dioxygenase 2 (Homo sapiens) (UniProt Q6ZQW0); assay: Inhibition of IDO2 (unknown origin) assessed as reduction in kynurenine formation using L-tryptophan as substrate by methylene blue reagent based assay relative to control; set-up: concentration or dose not given beside the values; details: concentration not given here
T3 sequence (whole entry): T1 sequence (Q6ZQW0 whole entry)

Q: `NS(=O)(=O)NCCNc1nonc1/C(=N/O)Nc1ccc(F)c(Br)c1` [EPACADOSTAT] was tested. Which inhibition (Mus musculus [1]) did it give?
A: inactive

Q: What about the inhibition (Mus musculus [2]) of the same compound?
A: inactive

Q: And the Activity (HCT-116 [3])?
A: inactive

Q: What about the inhibition (Mus musculus [4]) of the same compound?
A: inactive

Q: What about the IC50 (HCT-116 [5]) of the same compound?
A: 37.1 µM

Q: And the IC50 (HT-29)?
A: 63 µM

Q: What about the inhibition (Mus musculus [6]) of the same compound?
A: inactive

Q: What about the inhibition (Mus musculus [7]) of the same compound?
A: inactive

Q: And the IC50 (CT26 [8])?
A: 47.1 µM

Q: And the inhibition in vivo at 50 mg/kg (CT26 [9])?
A: 49.4%

Q: What about the inhibition (Mus musculus [10]) of the same compound?
A: inactive

Q: For `CCCCc1cn(CCNc2nonc2/C(=N/O)Nc2ccc(F)c(Br)c2)nn1`, which IC50 [11] is on record?
A: 0.83 µM

Q: And the IC50 [12]?
A: 0.127 µM

Q: What does the source list for `O/N=C(\Nc1ccc(F)c(Br)c1)c1nonc1NCCn1cc(-c2ccccc2)nn1`?
A: inhibition [13]: 17%; inhibition [14]: 4%
